In patent US10023615B2, “Efficient transport into white blood cells” (priority 2008, dated 2018):
Entries after “also recorded” stand apart in the source; their conditions may differ. Ends that are not written are not given here.

Tests used:
liver, Kupffer cells = experiment: Immunostaining against XG-102 in the liver after i.v. injection; assay type: in vivo, rat; conditions: 1 mg/kg i.v., 24 hours
Excerpt: Revelation was done using DAB substrate.

TNBS induced colitis = TNBS induced colitis (IBD study); assay type: in vivo
Protocol: b) Constitution of Test Groups and Dose Levels • The table below lists the experimental groups comprising the study.
c) Test Procedures • Colitis was induced by administration of TNBS dissolved in 50% Ethanol • All animals were then treated with doses of XG-102 in the range of 0.1 to 1000 μg/kg, […], as a single or repeated daily doses (see above).
d) Observations and Examinations • i) Clinical Signs • Throughout the duration of the above experiment, careful clinical examinations were carried out and recorded. Observations included changes external appearance, e.g. of the skin, fur, eyes, mucous membranes, occurrence of secretions and excretions (e.g. diarrhea), and autonomic activity. Changes in gait, posture and response to handling, as well as the presence of bizarre behavior, tremors, convulsions, sleep and coma were also noted. • ii) Body Weights • Determination of individual body weight of animals was made on a daily basis. • iii) Clinical Assessment of Colitis • Body weight, stool consistency and bleeding per rectum were all recorded daily and served as the parameters of disease severity score:
• iv) Gross Pathology of the Colon • On the last day of the experiment, animals were euthanized and the colon was removed for gross pathology evaluation according to the following score: […]

[1] = test system: bleomycin induced lung inflammation; experiment: Bleomycin (BLM) induced acute lung inflammation; assay type: in vivo, C57BL/6 mice; conditions: for cell recruitment in bronchoalveolar lavage space: single dose, 1 day
Excerpt: In order to determine the activity of the exemplary all-D retro-inverso IB(s) peptide XG-102 (SEQ ID NO: 233) in the treatment of Chronic Obstructive Pulmonary Disease (COPD) XG-102 (SEQ ID NO: 233) is used in an animal model of Bleomycin induced acute lung inflammation and fibrosis. The protocol of bleomycin induced inflammation and fibrosis has been described before in the literature. The aim of the Experiment was to investigate the effect of XG-102 (SEQ ID NO: 233) by subcutaneous (s.c.) route on neutrophil recruitment in broncho alveolar lavage (BAL) and lung in bleomycin induced inflammation and fibrosis: • at 1 day after a single bleomycin administration (10 mg/kg) • and at day 10 with the development of fibrosis
1) Method and Experimental Approach • The test compound XG-102 (SEQ ID NO: 233) at two doses and vehicle control were given s.c. with a single intranasal administration of bleomycin and mice were analyzed after 1 and 10 days. The animals used in the model were 10 C57BL/6 mice (8 weeks old) per group. The experimental groups included vehicle, 0.001 mg/kg XG-102 (SEQ ID NO: 233) and 0.1 mg/kg XG-102 (SEQ ID NO: 233), and the treatment consisted of repeated sub-cutaneous administration of XG-102 (SEQ ID NO: 233), prior to bleomycin administration then every 3 days. Acute lung inflammation at 24 h was monitored by BAL lavage, cytology, cell counts, and lung myeloperoxidase activity. The effect of the compound was compared with vehicle controls. Lung fibrosis was assessed histologically using hematoxylin and eosin staining at day 10 after the single dose of bleomycin.
1.1) Bleomycin Administration • Bleomycin sulfate in saline (10 mg/kg body weight) from Bellon Laboratories (Montrouge, France) or saline were given through the airways by nasal instillation in a volume of 40 μL under light ketamine-xylasine anesthesia. The groups for Bleomycin administration for both bleomycin induced inflammation and fibrosis included: Vehicle, 0.001 mg/kg XG-102 (SEQ ID NO: 233) and 0.1 mg/kg XG-102 (SEQ ID NO: 233). The route for bleomycin induced inflammation was subcutaneous (s.c.) route, and administration occurred as a single dose. The route for bleomycin induced fibrosis was subcutaneous (s.c.) route, and administration occurred 3 times in 10 days.
1.2) Bronchoalveolar Lavage Fluid (BALE) • After incision of the trachea, a plastic cannula was inserted and airspaces were washed using 0.3 ml of PBS solution, heated to 37° C. The samples collected were dispatched in 2 fractions: the first one (1 ml corresponding to the 2 first lavages) was used for mediator measurement and the second one for the cell determination (4 ml). The first fraction was centrifuged (600 g for 10 min) and supernatant was fractionated and kept at −80° C. until mediator determination. The cell pellet was then resuspended in 0.4 ml sterile NaCl, 0,9%, and pooled with the second fraction and was used for cell counts.
1.3) Lung Homogenization • After BAL the whole lung was removed and placed inside a microtube (Lysing matrix D, Q Bio Gene, Illkrich, France) with 1 ml of PBS, total lung tissue extract was prepared using a Fastprep® system (FP120, Q Bio Gene, Illkrich, France), the extract was then centrifuged and the supernatant stored at −80° C. before mediator measurement and collagen assay with Sircol Collagen Assay (France Biochem Division, France).
1.4) Cell Count and Determination • Total cell count was determined in BAL fluid using a Malassez hemocytometer. Differential cell counts were performed on cytospin preparations (Cytospin 3, Thermo Shandon) after staining with MGG Diff-quick (Dade Behring AG). Differential cell counts were made on 200 cells using standard morphological criteria.
1.5) TNF Measurement • TNF level in BALF was determined using ELISA assay kits (Mouse DuoSet, R&D system, Minneapolis, USA) according to manufacturer's instructions. Results are reported as pg/ml. […]

With “dqsrpvqpflnIttprkprpprrrqrrkkrg (DQSRPVQPFLNLTTPRKPRPPRRRQRRKKRG; not fully specified (some residues); printed as dqsrpvqpflnIttprkprpprrrqrrkkrg) [XG-102]” the accumulation in liver (liver, Kupffer cells) was “pronounced accumulation of XG-102 in the liver, and especially, in the Kupffer cells”, the “disease recovery (conclusion)” value (TNBS induced colitis) was “active in enhancing diseases recovery” and the body weights (TNBS induced colitis; TNBS induced weight loss) was “either prevented the weight loss or ameliorated the symptoms and supported recovery”. For the same substance, the clinical score (TNBS induced colitis; any dose, route or time schedule (single dose or daily dose)) was “an effect equivalent to or better than the one observed with the commonly used reference drug sulfasalazine”, the clinical signs (TNBS induced colitis; mouse, in vivo) was “No abnormalities were observed” and the mortality rate (TNBS induced colitis; mouse, in vivo) was “No mortality was recorded”. The “cell recruitment in bronchoalveolar lavage space” value ([1]; 0.001 mg/kg s.c.) was “has no effect on neutrophil recruitment or other cell types into the bronchoalveolar space”, the “cell recruitment in bronchoalveolar lavage space” value ([1]; 0.1 mg/kg s.c.) was “reduces significantly the neutrophil recruitment and the number of total cells recruited; also recorded: decreases the neutrophil and total cell recruitment into the bronchoalveolar space” and the “MPO levels in the lung” value ([1]; MPO not significantly induced after bleomycin) was “no effect on MPO levels in the lung; also recorded: no effect on the MPO levels in the lung”. For the same substance, the “TNF level in BALF” value ([1]; TNF levels very low after BLM) was “a trend to reduction of the TNF level in BALF; also recorded: induces a trend to decrease the TNF level”, the “Bleomycin-induced inflammation (conclusion)” value ([1]; mouse, in vivo) was “reduces the Bleomycin-induced inflammation” and the “histology: inflammatory cell accumulation” value ([1]; peribronchial space) was “a decrease of the inflammatory cell accumulation in the peribronchial space”.
